Measured values as given in patent US20080057010A1, “METHOD FOR SKIN CARE” (NULIV SCIENCE LTD., priority 2006, published 2008).

Experiments:
collagen I [1] = experiment: Collagen I expression in human HaCaT cells (western blot); assay type: cell-based; details: relative to 0 μM = 1.00
Description: The Spontaneously transformed human keratinocyte cell lines HaCaT cells were grown at 37° C. in a humidified incubator under 5% CO2 and 95% air in culture medium such as Dulbecco Modified Eagle Medium (DMEM) supplemented with 10% Fetal Bovine Serum (FBS), 100 IU/mL penicillin, 100 μg/mL of streptomycin, 2 mM sodium pyruvate and 1% Non-Essential Amino Acids (NEAA). The culture medium was replaced every other day. After confluence, the cells were subcultured following trypsinization. For subcultures cells were harvested after brief treatment with 0.1% trypsin/ethylenediaminetetraacetic acid (EDTA) solution and seeded at a dilution of 1:10. Cells between passages 12 and 45 were used for studies. The cells were seeded and incubated for 24 h before treated with the astragalosides for 24 h. Control cultures were maintained in medium supplemented with vehicle (dimethyl sulfoxide (DMSO) 0.1%). No growth and differentiation effects of DMSO were observed under these culture conditions.
(§1) The cells were treated with pure compounds such as astragaloside I (AS 1), astragaloside II (AS2), astragaloside III (AS3), astragaloside IV (AS4), astragaloside VI (AS6), isoastragaloside I (isoAS1), isoastragaloside II (isoAS2), and cycloastragenol 6-O-β-D-glucopyranose (AA) at concentrations of 0-10 μM. Alternatively, the cells were also treated with the crude extracts, such as butanol fraction and water insoluble fraction of Astragalus membranaceus at concentrations of 0, 1, 10, and 40 μg/mL. The cells were treated with the indicated compounds or the extracts for 24 h before harvested for analysis of collagen I and III expressed in the whole cell extract or secreted into the culture medium.
(§2) Western blot analysis was carried out on both of cultured medium and cell lysates. The cells were plated on 6-cm dishes at a density of 1×10^6 cells/dish for 24 h prior to treatment with indicated concentrations of astragalus triterpenoids as indicated for another 48 h. The conditioned culture mediums were then centrifuged, 2-fold concentrated and collected for assay of collagens and MMPs secreted into the culture medium. The cells were washed and lysed in 0.2 mL of lysis buffer (1% NP-40, 50 mM Tris-HCl, pH 7.4, 180 mM NaCl, 1 mM EDTA, 1 mM PMSF, 1 mM NaF, 10 mM Na3VO4) for 30 min at 4° C. After centrifuging at 17500 g for 15 min, the supernatants of cell lysate were also collected. Protein concentration of the samples were measured using the bicinchoninic acid (BCA) protein assay kit according to the manufacturer's protocol (Pierce, Rockford, Ill., USA). Equal amount of protein samples of concentrated conditioned medium (100 μg) or cell lysate supernatants (50 μg) were mixed with an appropriate volume of 4×SDS sampling buffer and separated by 8% SDS-PAGE gel. The protein bands separated in the SDS-PAGE gel were blotted onto a polyvinylidene fluoride (PVDF) membrane. The blotted PVDF membrane was washed twice and blocked in freshly prepared Tris-buffered saline (TBS) containing 0.1% Tween-20 and 7% skim milk (TBST) for 2 h at room temperature. The PVDF membrane was then incubated with either antibodies against collagen I and III or the housekeeping protein α-tubulin (Santa Cruz Biotechnology, Santa Cruz, Calif.) for 18 h at 4° C. Horseradish peroxidase-conjugated anti-goat antibody was used as secondary antibody. Signals were visualized by an enhanced chemiluminescence kit (Clonetech, Palo Alto, Calif., USA) followed by exposure to X-ray films.
Results shown represent the quantitated data from western blot analysis. […] The collagen I was also over-expressed in the human HaCaT cells treated with 40 μg/mL of astragaloside extract.

collagen I [2] = experiment: Collagen I expression and secretion in human HDF cells (western blot); assay type: cell-based; details: relative to 0 = 1.00
Description: (§3) Primary human dermal fibroblasts cells (HDF) were purchased from Cascade Biologics (Portland, Oreg., USA) and cultured in medium 106 supplemented with 10% fetal bovine serum (FBS), 100 IU/mL penicillin, 100 μg/mL of streptomycin. The cells from passages 4 to 10 were used for this study. Culture medium was replaced every other day. After confluence, the cells were subcultured following trypsinization. For subcultures cells were harvested after brief treatment with 0.1% trypsin/EDTA solution and seeded at a dilution of 1:10. The cells were seeded at 1×10^5 cells in 6-well culture plate for 24 h before treated with astragalosides or crude extracts, such as butanol fraction and water insoluble fraction of Astragalus membranaceus for the indicated time periods. Control cultures were maintained in medium supplemented with vehicle (dimethyl sulfoxide, DMSO, 0.1%). No growth and differentiation effects of DMSO were observed under these culture conditions.
as §1, §2
The collagen expression in the human HDF cells was also determined. […] And Collage I was over-expressed in the cells treated with various doses (1, 10, 40 μg/mL) of the crude extracts, such as butanol fraction and water insoluble fraction of Astragalus membranaceus.

collagen III = experiment: Collagen III expression and secretion in human HDF cells (western blot); assay type: cell-based; details: relative to 0 = 1.00
Description: as §3, §1, §2

HaCaT cells = experiment: Glucosamine uptake assay in HaCaT cells; assay type: cell-based, human; details: 0.1 μM
Description: In glucosamine uptake test, HaCaT cells were seeded into 24-well plate at a density of 3×10^4 cells/well and cultured for 24 h. The cells were then treated in the absence (solvent control) or presence of various concentrations of astragalosides for another 48 h. The treated cells were then washed twice with PBS and incubated in glucose and serum free medium (GSFM). After 2 h, the cells were replaced with fresh GSFM containing 0.2 μCi of [^14C]-Glucosamine (American Radiolabelled Chemicals Inc, ARC, St. Louis, Mo., USA). At the designated time interval, the cells were washed twice with GSFM containing cold glucosamine and then lysed in 200 μL 2% SDS. Cell lysates were centrifuged at 15000 g for 15 min. Intracellular uptaken glucosamine was determined by transferring 10 μL of the cell lysate to filter-bottemed UniFilter plates (Perkim-Elmer) and counted. Protein concentration of the samples was measured using the BCA protein assay kit as described above. Glucosamine accumulated in the cells was calculated and normalized to protein concentration and uptake rate was expressed as counts per minute per microgram of cell protein (cpm/min/μg).

MMP-1 [3] = experiment: Quantitative analysis of MMP-1 transcripts in HDF cells (qRT-PCR); assay type: cell-based, human; details: 0.1 μM, MMP-1 mRNA relative to 0 = 1.00
Description: Relative levels of MMP-1 expression in HDF cells were determined by qRT-PCR. Preparation of total RNA and cDNA were carried out as described in previous sections. qRT-PCR was performed using the Applied Biosystem 7300 system and pre-developed Taqman Gene Expression Assays (Applied Biosystems, Foster City, Calif., USA). The reaction was performed as described in previous sections except that primer mix for human MMP-1 (assay ID HS00233958_m1, Applied Biosystems) and GAPDH (assay ID Hs99999905_m1, Applied Biosystems) were used.
Results shown in Tables 6A and 6B represent the quantitated data from zymography analysis of MMP-2 protein in HaCaT cells and qRT-PCR for MMP-1 in HDF cells. The concentrations used were 0, 0.01. 0.1, 1 μM (if not indicated otherwise) for pure compounds; and were 0, 1, 10, 40 μg/mL for crude extract (if not indicated otherwise). The cells were treated with the indicated compounds for 24 h before harvested for analysis of Pro-MMP-2 or activated MMP-2 in whole cell extract. Fifty micrograms of the cell extract samples were used for electrophoresis.

MMP-1 [4] = experiment: UV-B-induced MMP-1 expression in human HDF cells (western blot, FIG. 1); assay type: cell-based; details: 50 mJ/cm^2 UV-B, positive control (FIG. 1 lane 3)
Description: To characterize the effects of astragalosides on the expression level of MMPs in human cells, HDF or HaCaT cells were first treated with or without various concentrations of astragalosides for 24 h. The cells were washed with phosphate-buffered saline (PBS) and irradiated with 10-100 mJ/cm^2 of UV-B (312 nm) for HDF-1 and HaCaT cells, respectively, using the UV light irradiator (UVItec unlimited, Cambridge, England). The cells were then washed and incubated with serum free medium for 24 h before harvested for analysis. The effect of astragalosides on MMPs levels was analyzed by western blot and the activity of MMPs was analyzed by zymography. All trans retinoic acid (atRA) was used as a positive control to suppress the UV-B-induced MMPs activation and expression.
Human HDF cells were treated with the indicated concentrations of water insoluble fraction of Astragalus membranaceus for 24 h. The cells were then irradiated with 50 mJ/cm^2 of UV-B. After 24 h, the cells were harvested for western blot analysis. […] Thus, the water insoluble fraction of Astragalus membranaceus is a potential agent for the prevention and treatment of skin aging as a result of UV irradiation.

Structure (SMILES) | Collagen I in cell (collagen I [1]; 0.01 μM) | Collagen I in cell (collagen I [1]; 0.1 μM) | Collagen I in cell (collagen I [1]; 1 μM) | Collagen I in cell (collagen I [2]; 0.01 μM) | Collagen I in medium (collagen I [2]; 0.01 μM) | Collagen I in cell (collagen I [2]; 0.1 μM) | Collagen I in medium (collagen I [2]; 0.1 μM) | Collagen I in cell (collagen I [2]; 1 μM) | Collagen I in medium (collagen I [2]; 1 μM) | Collagen III in medium (collagen III; 0.01 μM) | Collagen III in medium (collagen III; 0.1 μM) | Collagen III in medium (collagen III; 1 μM) | Uptake rate (glucosamine) (HaCaT cells; 48 h treatment) | Percentage (%) of control glucosamine uptake (HaCaT cells; relative to control) | MMP-1 Q-PCR (MMP-1 [3]) | UV-mediated induction of MMP-1 expression (MMP-1 [4])
CC(C)(O)C1CC[C@](C)(C2[C@@H](O)C[C@@]3(C)C4C[C@H](OC5OC(CO)C(O)C(O)C5O)C5C(C)(C)[C@@H](O)CCC56CC46CC[C@]23C)O1 (stereo partly drawn) [AA, cycloastragenol 6-O-β-D-glucopyranose] | 2.57 | 3.34 | 3.47 | 1.04 | 0.97 | 1.85 | 0.95 | 1.17 | 1.52 | 1.03 | 1.62 | 1.34 | 0.9445 ± 0.0823 CPM/μg protein | 114.59% | 0.76 | 
CC1=C(/C=C/C(C)=C/C=C/C(C)=C/C(=O)O)C(C)(C)CCC1 [atRA, All trans retinoic acid] |  |  |  |  |  |  |  |  |  |  |  |  |  |  |  | blocked
